Results on 14 molecules are retold here after US9643957B2, “Heterocyclic compounds having cholesterol 24-hydroxylase activity” (TAKEDA PHARMACEUTICAL COMPANY LIMITED, priority 2012, dated 2017).

This assay deals with T1, human CH24H (Homo sapiens, UniProt Q9Y6A2).
T1 construct: Using Full-Length Mammalian Gene Collection No. 4819975 (Invitrogen) as a template; made in house; host or cells: FreeStyle 293-F cells, transient transfection with pcDNA3.1(+)/hCH24H; lysate supernatant, not purified
T1 sequence (Q9Y6A2 whole entry): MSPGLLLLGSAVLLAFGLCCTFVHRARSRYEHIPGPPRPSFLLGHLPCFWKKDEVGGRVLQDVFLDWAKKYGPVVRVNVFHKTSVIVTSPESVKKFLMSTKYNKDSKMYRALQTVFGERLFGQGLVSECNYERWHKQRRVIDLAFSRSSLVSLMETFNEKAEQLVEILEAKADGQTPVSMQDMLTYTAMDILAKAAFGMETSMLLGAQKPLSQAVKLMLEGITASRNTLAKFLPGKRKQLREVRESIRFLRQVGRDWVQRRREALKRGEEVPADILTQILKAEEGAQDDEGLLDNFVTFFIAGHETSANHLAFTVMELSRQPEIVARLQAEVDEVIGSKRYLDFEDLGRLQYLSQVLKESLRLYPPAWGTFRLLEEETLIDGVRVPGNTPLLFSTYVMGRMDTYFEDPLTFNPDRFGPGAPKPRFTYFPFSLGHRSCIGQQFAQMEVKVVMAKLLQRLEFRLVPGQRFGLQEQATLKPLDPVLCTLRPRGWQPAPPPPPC
The assay is described as follows: Measurement of CH24H inhibitory activity (24-HC produced from [14C] cholesterol by human CH24H lysate). To be noted: 1 μM test compound, [14C] cholesterol 15 μM, 37° C. for 5 hr, read-out: Inhibitory Rate in 1 μM (%). Format: biochemical. The procedure: The expression of human CH24H was performed using FreeStyle 293 Expression System (Invitrogen). […] After transfection, the cells were cultured at 37° C., 8% CO2 with shaking at 125 rpm for 2 days. The cells were collected by centrifugation, and suspended in a suspension buffer (100 mM potassium phosphate (pH 7.4), 0.1 mM EDTA, 1 mM DTT, 20% Glycerol). The suspended product was disrupted by a polytron homogenizer (manufactured by Kinematica), and centrifuged at 9000×g for 10 min, and the supernatant was collected. The collected supernatant was cryopreserved (−80° C.) as a human CH24H lysate standard product.
For the measurement of CH24H inhibitory activity, using the human CH24H lysate prepared in Experimental Example 2, the amount of 24-HC produced from cholesterol by catalytic activity of CH24H was measured in the presence of a test compound, and compared with that measured in the absence of the test compound. That is, a test compound solution at various concentrations was mixed with a reaction buffer (50 mM potassium phosphate containing 0.1% BSA and Complete, EDTA-free, pH 7.4) and human CH24H lysate. Then, [^14C] cholesterol (53 mCi/mmol specific activity, 15 μM) was added, and CH24H reaction was performed at 37° C. for 5 hr. After completion of the reaction, a quenching solution consisting of chloroform/methanol/distilled water (2:2:1 v/v) was added, and the resulting 24-HC was extracted by shaking. The extract was applied to silica gel thin layer chromatography (ethyl acetate:toluene=4:6), and the obtained ^14C-24HC fraction was measured with BAS2500 (Fujifilm Corporation).
The inhibitory rate (%) was calculated from the ratio of radioactivity in the presence of a test compound relative to the radioactivity in the absence of the test compound.
`Cc1cnn(-c2ccncc2N2CCC(C(=O)N3CC(F)C3)CC2)c1` [Example 280, (3-fluoroazetidin-1-yl)(1-(4-(4-methyl-1H-pyrazol-1-yl)pyridin-3-yl)piperidin-4-yl)methanone]: the inhibition at 1 µM turned out to be 78%. `O=C(CCn1ncc2ccccc21)N1CCN(c2cnccc2-c2ccccc2)CC1` [Example 183, 3-(1H-indazol-1-yl)-1-(4-(4-phenylpyridin-3-yl)piperazin-1-yl)propan-1-one]: the inhibition at 1 µM came to 92%.

With `O=C(NC1CCOCC1)C1CCN(c2cnccc2-n2cc(Cl)cn2)CC1` [Example 24, 1-(4-(4-chloro-1H-pyrazol-1-yl)pyridin-3-yl)-N-(tetrahydro-2H-pyran-4-yl)piperidine-4-carboxamide], the inhibition at 1 µM is 96%.

As to `Cc1cnc(-c2ccncc2N2CCC(C(=O)N3CC[C@H](F)C3)CC2)s1` [Example 316, ((3S)-3-fluoropyrrolidin-1-yl)(1-(4-(5-methyl-1,3-thiazol-2-yl)pyridin-3-yl)piperidin-4-yl)methanone], the inhibition at 1 µM is 94%.

As for `CN(C(=O)C1CCN(c2cncnc2-c2ccc(F)cc2)CC1)[C@H]1CCOC1` [Example 309, 1-(4-(4-fluorophenyl)pyrimidin-5-yl)-N-methyl-N-((3S)-tetrahydrofuran-3-yl)piperidine-4-carboxamide], the inhibition at 1 µM was 85%. In the case of `CNC(=O)C1CCN(c2cnccc2-n2cc(C(F)(F)F)cn2)CC1` [Example 12, N-methyl-1-(4-(4-(trifluoromethyl)-1H-pyrazol-1-yl)pyridin-3-yl)piperidine-4-carboxamide] it was 90%. Regarding `Cc1cnn(-c2ccncc2N2CCC(C(=O)N3CC(F)(F)C[C@H]3C#N)CC2)c1` [Example 121, (2S)-4,4-difluoro-1-((1-(4-(4-methyl-1H-pyrazol-1-yl)pyridin-3-yl)piperidin-4-yl)carbonyl)pyrrolidine-2-carbonitrile], the inhibition at 1 µM was determined as 80%. In the case of `N#C[C@@H]1CC(F)(F)CN1C(=O)C1CCN(c2cnccc2-n2cc(Cl)cn2)CC1` [Example 119, (2S)-1-((1-(4-(4-chloro-1H-pyrazol-1-yl)pyridin-3-yl)piperidin-4-yl)carbonyl)-4,4-difluoropyrrolidine-2-carbonitrile] it was 93%.

Turning to `Cc1cnn(-c2ccncc2N2CCC(C(=O)N(CCF)[C@@H]3CCOC3)CC2)c1` [Example 313, N-(2-fluoroethyl)-1-(4-(4-methyl-1H-pyrazol-1-yl)pyridin-3-yl)-N-((3R)-tetrahydrofuran-3-yl)piperidine-4-carboxamide], the inhibition at 1 µM amounted to 82%.

Consider `Cc1cnn(-c2ccncc2N2CCC(C(=O)N3CC[C@H](F)C3)CC2)c1` [Example 282, ((3S)-3-fluoropyrrolidin-1-yl)(1-(4-(4-methyl-1H-pyrazol-1-yl)pyridin-3-yl)piperidin-4-yl)methanone], for which the inhibition at 1 µM came out at 83%. Take `CN(C)C(=O)C1CCN(c2cnccc2-n2cc(C#N)cn2)CC1` [Example 83, 1-(4-(4-cyano-1H-pyrazol-1-yl)pyridin-3-yl)-N,N-dimethylpiperidine-4-carboxamide]: the inhibition at 1 µM is 74%.

Turning to `Cc1cnn(-c2ccncc2N2[C@@H]3CC[C@H]2C[C@H](C(=O)N(C)C)C3)c1` [Example 13, (3-exo)-N,N-dimethyl-8-(4-(4-methyl-1H-pyrazol-1-yl)pyridin-3-yl)-8-azabicyclo[3.2.1]octane-3-carboxamide], the inhibition at 1 µM came to 89%. Under `Cc1cn(-c2ccncc2N2CCC(C(=O)NC3CC3)CC2)nc1C` [Example 200, N-cyclopropyl-1-(4-(3,4-dimethyl-1H-pyrazol-1-yl)pyridin-3-yl)piperidine-4-carboxamide] stands 88%. `Cc1nnc(-c2ccncc2N2CCC(F)(C(=O)N3CCC[C@@H]3C#N)CC2)s1` [Example 131, (2R)-1-((4-fluoro-1-(4-(5-methyl-1,3,4-thiadiazol-2-yl)pyridin-3-yl)piperidin-4-yl)carbonyl)pyrrolidine-2-carbonitrile]: the inhibition at 1 µM came to 87%.
